The source of these data is patent US8796470B2 (AbbVie Inc., priority 2010, dated 2014).

Bounds are passed on as bounds.

In the experiment the target is T1, human Cav2.2 (Homo sapiens, UniProt Q00975).
T1 construct: IMR32 cells endogenously expressing human Cav2.2; endogenous in cells; host or cells: IMR32 cells (human neuroblastoma)
T1 sequence (Q00975 whole entry): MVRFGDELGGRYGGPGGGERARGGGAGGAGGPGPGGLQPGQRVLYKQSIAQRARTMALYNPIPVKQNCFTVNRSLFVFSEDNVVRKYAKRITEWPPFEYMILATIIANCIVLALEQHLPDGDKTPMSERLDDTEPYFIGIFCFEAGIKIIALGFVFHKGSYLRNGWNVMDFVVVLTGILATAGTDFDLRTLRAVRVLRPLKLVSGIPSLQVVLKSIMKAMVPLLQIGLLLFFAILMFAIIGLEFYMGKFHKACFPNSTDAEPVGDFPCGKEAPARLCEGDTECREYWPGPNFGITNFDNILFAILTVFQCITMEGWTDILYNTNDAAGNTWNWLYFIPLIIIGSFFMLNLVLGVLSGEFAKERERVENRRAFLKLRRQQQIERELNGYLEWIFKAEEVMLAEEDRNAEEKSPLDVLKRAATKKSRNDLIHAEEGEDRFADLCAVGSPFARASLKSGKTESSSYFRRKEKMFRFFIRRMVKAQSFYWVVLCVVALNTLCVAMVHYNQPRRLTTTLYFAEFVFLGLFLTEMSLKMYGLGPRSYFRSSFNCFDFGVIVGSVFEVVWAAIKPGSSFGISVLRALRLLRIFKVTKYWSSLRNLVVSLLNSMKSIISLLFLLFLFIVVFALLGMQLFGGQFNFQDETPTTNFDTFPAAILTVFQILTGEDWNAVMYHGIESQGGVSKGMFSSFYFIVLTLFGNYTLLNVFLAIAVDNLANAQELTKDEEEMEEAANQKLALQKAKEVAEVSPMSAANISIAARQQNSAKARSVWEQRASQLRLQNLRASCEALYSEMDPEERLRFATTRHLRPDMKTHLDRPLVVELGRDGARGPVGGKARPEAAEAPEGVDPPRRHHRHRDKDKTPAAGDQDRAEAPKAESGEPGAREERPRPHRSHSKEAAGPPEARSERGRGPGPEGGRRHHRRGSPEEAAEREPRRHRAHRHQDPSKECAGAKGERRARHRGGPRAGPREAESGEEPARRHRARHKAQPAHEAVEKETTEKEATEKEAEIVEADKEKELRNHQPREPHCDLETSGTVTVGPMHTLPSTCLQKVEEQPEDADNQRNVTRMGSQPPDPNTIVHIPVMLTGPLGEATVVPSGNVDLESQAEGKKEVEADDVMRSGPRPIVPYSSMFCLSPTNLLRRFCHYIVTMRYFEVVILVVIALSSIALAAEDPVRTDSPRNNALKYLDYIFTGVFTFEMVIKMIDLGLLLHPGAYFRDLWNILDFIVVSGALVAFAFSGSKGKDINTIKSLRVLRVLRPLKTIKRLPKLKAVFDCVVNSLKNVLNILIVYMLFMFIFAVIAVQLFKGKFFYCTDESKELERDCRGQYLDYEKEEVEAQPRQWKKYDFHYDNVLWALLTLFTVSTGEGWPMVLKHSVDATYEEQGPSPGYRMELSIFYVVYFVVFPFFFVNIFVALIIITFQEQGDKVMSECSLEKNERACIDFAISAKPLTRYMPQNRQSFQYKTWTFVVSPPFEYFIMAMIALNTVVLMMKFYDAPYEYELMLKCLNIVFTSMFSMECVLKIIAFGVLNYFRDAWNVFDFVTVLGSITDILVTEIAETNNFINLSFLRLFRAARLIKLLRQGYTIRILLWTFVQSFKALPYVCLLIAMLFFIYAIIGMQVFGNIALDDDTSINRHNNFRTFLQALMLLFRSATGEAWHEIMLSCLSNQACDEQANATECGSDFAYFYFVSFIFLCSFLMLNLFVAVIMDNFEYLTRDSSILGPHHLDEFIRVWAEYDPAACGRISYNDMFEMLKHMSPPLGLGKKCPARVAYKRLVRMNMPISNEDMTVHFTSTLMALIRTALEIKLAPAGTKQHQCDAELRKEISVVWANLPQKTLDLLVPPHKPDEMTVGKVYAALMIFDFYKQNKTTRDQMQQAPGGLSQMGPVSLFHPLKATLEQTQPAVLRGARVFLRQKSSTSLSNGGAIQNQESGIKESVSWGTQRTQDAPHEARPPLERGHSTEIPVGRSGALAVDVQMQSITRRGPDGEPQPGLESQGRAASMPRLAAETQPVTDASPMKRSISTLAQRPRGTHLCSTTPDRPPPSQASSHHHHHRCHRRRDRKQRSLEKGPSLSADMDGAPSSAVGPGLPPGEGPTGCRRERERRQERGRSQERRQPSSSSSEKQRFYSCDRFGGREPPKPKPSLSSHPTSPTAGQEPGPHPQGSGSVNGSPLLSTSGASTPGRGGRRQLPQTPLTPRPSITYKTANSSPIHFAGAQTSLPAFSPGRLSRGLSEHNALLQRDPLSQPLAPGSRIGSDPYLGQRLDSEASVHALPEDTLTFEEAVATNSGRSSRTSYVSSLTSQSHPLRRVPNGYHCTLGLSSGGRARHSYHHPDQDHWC
T1 sequence (P54289 25-956 partner limits assumed): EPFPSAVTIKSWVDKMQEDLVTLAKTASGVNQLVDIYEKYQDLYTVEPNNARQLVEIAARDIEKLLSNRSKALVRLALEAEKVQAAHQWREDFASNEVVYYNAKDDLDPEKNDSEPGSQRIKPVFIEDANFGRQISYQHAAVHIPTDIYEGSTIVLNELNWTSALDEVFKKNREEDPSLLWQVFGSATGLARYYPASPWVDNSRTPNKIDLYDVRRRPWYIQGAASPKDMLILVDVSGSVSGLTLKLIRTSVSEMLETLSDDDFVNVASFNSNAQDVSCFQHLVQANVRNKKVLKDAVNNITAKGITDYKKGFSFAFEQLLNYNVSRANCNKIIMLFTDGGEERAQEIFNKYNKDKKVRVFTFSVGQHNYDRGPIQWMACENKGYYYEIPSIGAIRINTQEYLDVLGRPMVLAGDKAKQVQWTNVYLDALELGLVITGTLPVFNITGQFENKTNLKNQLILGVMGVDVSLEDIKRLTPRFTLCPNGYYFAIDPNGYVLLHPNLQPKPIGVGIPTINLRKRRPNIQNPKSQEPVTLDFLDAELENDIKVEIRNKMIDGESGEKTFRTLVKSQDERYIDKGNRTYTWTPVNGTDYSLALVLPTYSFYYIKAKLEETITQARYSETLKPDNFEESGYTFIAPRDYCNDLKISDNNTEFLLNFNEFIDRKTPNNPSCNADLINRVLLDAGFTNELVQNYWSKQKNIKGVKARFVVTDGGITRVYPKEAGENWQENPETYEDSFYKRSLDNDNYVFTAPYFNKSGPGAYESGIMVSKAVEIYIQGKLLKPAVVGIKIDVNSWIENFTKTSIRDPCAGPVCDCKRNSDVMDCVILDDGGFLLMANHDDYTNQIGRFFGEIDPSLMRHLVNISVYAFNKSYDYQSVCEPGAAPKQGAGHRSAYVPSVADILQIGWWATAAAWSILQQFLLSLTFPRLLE
T1 sequence (P54289 957-1103 partner limits assumed): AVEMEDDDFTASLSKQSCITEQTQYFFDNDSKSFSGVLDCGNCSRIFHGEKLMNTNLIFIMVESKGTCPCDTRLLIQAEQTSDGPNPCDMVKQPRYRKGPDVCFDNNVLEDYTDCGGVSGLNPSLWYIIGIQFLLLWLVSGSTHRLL
T1 sequence (P54284 whole entry partner): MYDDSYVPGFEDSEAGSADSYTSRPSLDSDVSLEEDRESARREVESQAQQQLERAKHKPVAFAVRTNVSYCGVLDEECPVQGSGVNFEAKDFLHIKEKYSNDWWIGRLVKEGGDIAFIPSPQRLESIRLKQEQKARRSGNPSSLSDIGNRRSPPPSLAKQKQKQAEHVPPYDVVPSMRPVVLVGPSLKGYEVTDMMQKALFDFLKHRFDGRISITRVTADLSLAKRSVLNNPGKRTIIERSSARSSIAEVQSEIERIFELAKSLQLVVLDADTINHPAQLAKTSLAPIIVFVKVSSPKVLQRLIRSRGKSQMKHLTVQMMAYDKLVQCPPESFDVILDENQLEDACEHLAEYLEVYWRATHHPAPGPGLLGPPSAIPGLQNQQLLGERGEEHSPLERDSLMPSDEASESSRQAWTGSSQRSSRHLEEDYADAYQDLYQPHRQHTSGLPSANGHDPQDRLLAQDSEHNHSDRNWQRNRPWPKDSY
The experiment in a line: Assessment of calcium channel activity using FLIPR (Ca2+ influx in IMR32 cells). Format: cell-based. The conditions noted are these: IMR32 cells endogenously expressing human Cav2.2, Calcium 4 dye, 60 minute pre-incubation, 2 μM nifedipine, depolarized with 80 mM KCl, 5 mM CaCl2. The protocol: (i) In Vitro Methods—Assessment of Calcium Channel Activity Using FLIPR:
IMR32 cells endogenously expressing human Cav2.2 were assayed for Ca^2+ influx using a no-wash calcium indicator dye (Calcium 4 dye: Molecular Probes) and FLIPR technology (Lubin, M. L.; Reitz, T. L.; Todd, M. J.; Flores, C. M.; Qin, N.; Xin, H. Assay and Drug Development Technologies 2006, 4(6), 689-694.). The IMR32 cells were maintained in MEM media containing 10% (v/v) FBS, 1% (v/v) antibiotic/antimitotic, 1% (v/v) sodium pyruvate and 1% (v/v) MEM NEAA. Following dissociation in 0.05% (v/v) trypsin/EDTA, cells were seeded into black 1×96-well plates (Corning Cellbind) at a density of 1−1.2×10^5 cells/well and incubated in the maintenance media above for 48 hours at 37° C. Immediately prior to performing the assay the media was removed and cells were loaded for 1.5 hours with 1×Calcium 4 dye prepared in HBSS (137 mM NaCl, 5.4 mM KCl, 0.25 mM Na2HPO4, 0.44 mM KH2PO4, 1.3 mM CaCl2, 1 mM MgSO4, 4.2 mM NaHCO3) containing HEPES pH 7.4 at room temperature. After dye loading and a subsequent 60 minute pre-incubation with compounds (full log dilutions from 10 μM to 0.1 nM) in the presence of 1.3 mM CaCl2 and 2 μM nifedipine to block endogenous L-type channels, the external Ca^2+ concentration was increased to 5 mM CaCl2 and the cells concomitantly depolarized with 80 mM KCl to assay channel activity. To determine the IC50 values, the percent inhibition of the compound at each concentration was determined relative to the activity in the absence of inhibitor, and data was fitted using non-linear regression sigmoidal dose response curve analysis with GraphPad Prism®.
With `C[C@@]1(NC(=O)c2cccc(F)c2)CC[C@@H]2CN(Cc3ccccc3)C[C@@H]21` [Example 6, N-[(3aR,4R,6aS)-2-benzyl-4-methyloctahydrocyclopenta[c]pyrrol-4-yl]-3-fluorobenzamide], the IC50 – broadly, the midpoint of a concentration-inhibition curve – came out at 17.7 µM.
On to `FC(F)(F)c1cccc(N2C[C@H]3CC[C@H](n4ncc5ccccc54)[C@H]3C2)n1` [Example 65, 1-{(3aR,4S,6aS)-2-[6-(trifluoromethyl)pyridin-2-yl]octahydrocyclopenta[c]pyrrol-4-yl}-1H-indazole], for which the IC50 is 4.85 µM.
For `Fc1cccc2ncn([C@H]3CC[C@@H]4CN(c5cccc(C(F)(F)F)n5)C[C@@H]43)c12` [Example 64, 7-fluoro-1-{(3aR,4S,6aS)-2-[6-(trifluoromethyl)pyridin-2-yl]octahydrocyclopenta[c]pyrrol-4-yl}-1H-benzimidazole], the IC50 worked out at 3.6 µM.
`Cc1cnn([C@H]2CC[C@@H]3CN(c4cccc(C(F)(F)F)n4)C[C@@H]32)c1` [Example 63, (3aR,4S,6aS)-4-(4-methyl-1H-pyrazol-1-yl)-2-[6-(trifluoromethyl)pyridin-2-yl]octahydrocyclopenta[c]pyrrole]: the concentration for half-maximal inhibition (IC50) worked out at 2.78 µM.
With `Fc1cccc(O[C@H]2CC[C@@H]3CN(c4cccc(C(F)(F)F)n4)C[C@@H]32)c1` [Example 44, (3aR,4S,6aS)-4-(3-fluorophenoxy)-2-[6-(trifluoromethyl)pyridin-2-yl]octahydrocyclopenta[c]pyrrole] the figure was 6.01 µM; with `FC(F)(F)c1cccc(N2C[C@H]3CC[C@H](n4cc(Cl)cn4)[C@H]3C2)n1` [Example 52, (3aR,4S,6aS)-4-(4-chloro-1H-pyrazol-1-yl)-2-[6-(trifluoromethyl)pyridin-2-yl]octahydrocyclopenta[c]pyrrole], 7.39 µM; with `C[C@@]1(NCc2cccc(F)c2)CC[C@@H]2CN(c3cccc(C(F)(F)F)n3)C[C@@H]21` [Example 24, (3aR,4R,6aS)—N-(3-fluorobenzyl)-4-methyl-2-[6-(trifluoromethyl)pyridin-2-yl]octahydrocyclopenta[c]pyrrol-4-amine], 0.33 µM.
For the compound `CC(C)(C)OC(=O)N1C[C@H]2CC[C@H](C(=O)Nc3cccc(F)c3)[C@H]2C1` [Example 54], the IC50 stood at 11.6 µM.
With `C[C@@]1(NC(=O)c2ccccc2)CC[C@@H]2CN(c3cccc(C(F)(F)F)n3)C[C@@H]21` [Example 14, N-{(3aR,4R,6aS)-4-methyl-2-[6-(trifluoromethyl)pyridin-2-yl]octahydrocyclopenta[c]pyrrol-4-yl}benzamide] the figure was 2.14 µM; with `FC(F)(F)c1cccc(N2C[C@H]3CC[C@H](n4cnc(-c5ccccc5)c4)[C@H]3C2)n1` [Example 58, (3aR,4S,6aS)-4-(4-phenyl-1H-imidazol-1-yl)-2-[6-(trifluoromethyl)pyridin-2-yl]octahydrocyclopenta[c]pyrrole], 3.15 µM; with `Cc1nccn1[C@H]1CC[C@@H]2CN(c3cccc(C(F)(F)F)n3)C[C@@H]21` [Example 61, (3aR,4S,6aS)-4-(2-methyl-1H-imidazol-1-yl)-2-[6-(trifluoromethyl)pyridin-2-yl]octahydrocyclopenta[c]pyrrole], 3.57 µM.
In the case of `C=C1CC[C@@H]2CN(c3cccc(C(F)(F)F)n3)C[C@H]12` [Example 49, (3aS,6aS)-4-methylene-2-[6-(trifluoromethyl)pyridin-2-yl]octahydrocyclopenta[c]pyrrole], the concentration for half-maximal inhibition (IC50) was 24.9 µM.
Turning to `Cc1cn([C@H]2CC[C@@H]3CN(c4cccc(C(F)(F)F)n4)C[C@@H]32)cn1` [Example 67, (3aR,4S,6aS)-4-(4-methyl-1H-imidazol-1-yl)-2-[6-(trifluoromethyl)pyridin-2-yl]octahydrocyclopenta[c]pyrrole], the IC50 was found to be 4.33 µM.
As for `FC(F)(F)c1cccc(N2C[C@H]3CC[C@H](n4ccnc4)[C@H]3C2)n1` [Example 50, (3aR,4S,6aS)-4-(1H-imidazol-1-yl)-2-[6-(trifluoromethyl)pyridin-2-yl]octahydrocyclopenta[c]pyrrole], the IC50 is 4.3 µM.
With `C[C@]1(NC(=O)c2cccc(F)c2)CC[C@@H]2CN(Cc3ccccc3)C[C@@H]21` [Example 7, N-[(3aR,4S,6aS)-2-benzyl-4-methyloctahydrocyclopenta[c]pyrrol-4-yl]-3-fluorobenzamide] the figure was 5.16 µM.
`FC(F)(F)c1cccc(N2C[C@H]3CC[C@H](n4ccnc4-c4ccccc4)[C@H]3C2)n1` [Example 62, (3aR,4S,6aS)-4-(2-phenyl-1H-imidazol-1-yl)-2-[6-(trifluoromethyl)pyridin-2-yl]octahydrocyclopenta[c]pyrrole]: the IC50 amounted to 1.03 µM.
In the case of `C[C@]1(NC(=O)c2ccccc2)CC[C@@H]2CNC[C@@H]21` [Example 9, N-[(3aR,4S,6aS)-4-methyloctahydrocyclopenta[c]pyrrol-4-yl]benzamide], the 50% inhibitory concentration (IC50) is over 30 µM.
In the case of `FC(F)(F)c1cccc(N2C[C@H]3CC[C@H](n4cnc(-c5ccc(Cl)cc5)c4)[C@H]3C2)n1` [Example 57, (3aR,4S,6aS)-4-[4-(4-chlorophenyl)-1H-imidazol-1-yl]-2-[6-(trifluoromethyl)pyridin-2-yl]octahydrocyclopenta[c]pyrrole] it was 5.79 µM; in that of `C[C@]1(NC(=O)[C@@H]2C[C@@H](F)CN2)CC[C@@H]2CN(c3cccc(C(F)(F)F)n3)C[C@@H]21` [Example 70, (4R)-4-fluoro-N-{(3aR,4S,6aS)-4-methyl-2-[6-(trifluoromethyl)pyridin-2-yl]octahydrocyclopenta[c]pyrrol-4-yl}-L-prolinamide], 3.09 µM.
With `C[C@]1(NC(=O)c2ccccc2)CC[C@@H]2CN(c3cccc(C(F)(F)F)n3)C[C@@H]21` [Example 15, N-{(3aR,4S,6aS)-4-methyl-2-[6-(trifluoromethyl)pyridin-2-yl]octahydrocyclopenta[c]pyrrol-4-yl}benzamide] the figure was 2.52 µM; with `CCO[C@H]1CC[C@@H]2CN(c3cccc(C(F)(F)F)n3)C[C@@H]21` [Example 41, (3aR,4S,6aS)-4-ethoxy-2-[6-(trifluoromethyl)pyridin-2-yl]octahydrocyclopenta[c]pyrrole], 3.32 µM; with “5-methyl-1-{(3aR,4S,6aS)-2-[6-(trifluoromethyl)pyridin-2-yl]octahydrocyclopenta[c]pyrrol-4-yl}-1H-benzimidazole and 6-methyl-1-{(3aR,4S,6aS)-2-[6-(trifluoromethyl)pyridin-2-yl]octahydrocyclopenta[c]pyrrol-4-yl}-1H-benzimidazole [Example 59]”, 2.8 µM.
In the case of `FC(F)(F)c1cccc(N2C[C@H]3CC[C@H](OC[C@@H]4CCCN4)[C@H]3C2)n1` [Example 53, (3aR,4S,6aS)-4-[(2S)-pyrrolidin-2-ylmethoxy]-2-[6-(trifluoromethyl)pyridin-2-yl]octahydrocyclopenta[c]pyrrole] it was 0.66 µM.
`CO[C@H]1CC[C@@H]2CN(c3cccc(C(F)(F)F)n3)C[C@@H]21` [Example 40, (3aR,4S,6aS)-4-methoxy-2-[6-(trifluoromethyl)pyridin-2-yl]octahydrocyclopenta[c]pyrrole]: the IC50 amounted to 3.37 µM.
In the case of `CC(=O)N[C@]1(C)CC[C@@H]2CN(Cc3ccccc3)C[C@@H]21` [Example 4, N-[(3aR,4R,6aS)-2-benzyl-4-methyloctahydrocyclopenta[c]pyrrol-4-yl]acetamide] it was over 30 µM; in that of `C[C@]1(NC(=O)c2cccc(F)c2)CC[C@@H]2CN(c3cccc(C(F)(F)F)n3)C[C@@H]21` [Example 19, 3-fluoro-N-{(3aR,4S,6aS)-4-methyl-2-[6-(trifluoromethyl)pyridin-2-yl]octahydrocyclopenta[c]pyrrol-4-yl}benzamide], 1.82 µM.
For `C[C@@]1(NC(=O)c2ccccc2)CC[C@@H]2CNC[C@@H]21` [Example 8, N-[(3aR,4R,6aS)-4-methyloctahydrocyclopenta[c]pyrrol-4-yl]benzamide], the half-maximal inhibitory concentration (IC50) is 26.3 µM.
With `C=C1CC[C@@H]2CN(Cc3ccccc3)C[C@H]12` [Example 1, (3aS,6aS)-2-benzyl-4-methyleneoctahydrocyclopenta[c]pyrrole] the figure was over 30 µM; with `O[C@H]1CC[C@@H]2CN(c3cccc(C(F)(F)F)n3)C[C@@H]21` [Example 31, (3aR,4S,6aS)-2-[6-(trifluoromethyl)pyridin-2-yl]octahydrocyclopenta[c]pyrrol-4-ol], 9.62 µM; with `CC(C)[C@@]1(O)CC[C@@H]2CN(c3cccc(C(F)(F)F)n3)C[C@@H]21` [Example 34, (3aR,4S,6aS)-4-isopropyl-2-[6-(trifluoromethyl)pyridin-2-yl]octahydrocyclopenta[c]pyrrol-4-ol], 3.05 µM.
With `CCN[C@@]1(C)CC[C@@H]2CN(c3cccc(C(F)(F)F)n3)C[C@@H]21` [Example 23, (3aR,4S,6aS)—N-ethyl-4-methyl-2-[6-(trifluoromethyl)pyridin-2-yl]octahydrocyclopenta[c]pyrrol-4-amine] the figure was 1.76 µM.
